Consider 82 molecules from paper PMC12040169 (PLOS Biology, 2025).

A short description of the data set: in vitro. To be noted: human, hela cells, % viability.

Each structure is given as a SMILES string.

For orientation: viability means a read-out of living cells in per cent, often relative to untreated cells. In the case of `O=C(NCc1ccco1)[C@@H]1C=CCN1C(=O)Nc1ccccc1Cl` [CBK284269], the viability at 28.5 h, 10 µM was determined as 84.3%. The same measure for `CC(C)[C@H]1CN(Cc2ccco2)CCN1Cc1ccco1` [CBK284271]: 79.3%.

With `CC(C)[C@H]1CN(Cc2ccco2)CCN1C(=O)N1CCCCC1` [CBK284272], the viability at 28.5 h, 10 µM amounted to 87.6%. The same measure for `CC(C)[C@H]1CN(Cc2ccco2)CCN1C(=O)N1CCOCC1` [CBK284273]: 82.2%; for `CC(C)[C@H]1CN(Cc2ccco2)CCN1C(=O)NCc1ccccc1` [CBK284274]: 99.6%; for `CC(C)[C@H]1CN(Cc2ccco2)CCN1Cc1ccccn1` [CBK284275]: 112%.

As to `O=C(NC1CC1)[C@@H]1C=CCN1C(=O)Nc1ccccc1C(F)(F)F` [CBK284276], the viability at 28.5 h, 10 µM stood at 98.1%. Turning to `CC(C)(C)OC(=O)N1CCC[C@H]1C(=O)c1cccnc1` [CBK284280], the viability at 28.5 h, 10 µM turned out to be 99.3%. To `Cc1c(C(=O)N2CCC[C@H]2[C@H](O)c2nccs2)oc2ccccc12` [CBK284281] belongs 100%; to `CC(C)(C)OC(=O)N1CCC[C@@H]([C@H](O)c2nccs2)C1` [CBK284283], 81%. To `CC(C)(C)OC(=O)N1CCC[C@@H](C(=O)c2cccnc2)C1` [CBK284284] belongs 98.2%; to `O=C(c1cc2c(s1)CCC2)N1CCC[C@H]1[C@H](O)c1nccs1` [CBK284287], 92.5%; to `O=C(c1ccco1)N1CCC[C@@H]1[C@@H](O)c1cccs1` [CBK284291], 80.7%.

For the molecule `O=C(NCc1ccco1)[C@@H]1C=CCN1C(=O)NCc1ccccc1` [CBK284293], the viability at 28.5 h, 10 µM was 93%. Turning to `CC[C@H](Cn1nc(-c2cccs2)ccc1=O)NC(=O)C(C)C` [CBK284296], the viability at 28.5 h, 10 µM came to 93.7%. As for `CC(C)[C@@H](Cn1nc(-c2cccs2)ccc1=O)NC(=O)C1CC1` [CBK284297], the viability at 28.5 h, 10 µM stood at 87.4%. Take `COc1ccc(OC[C@@H](N)C(C)C)cc1` [CBK284299]: the viability at 28.5 h, 10 µM stood at 93.9%. Regarding `CC[C@H](Cn1ncc2ccccc2c1=O)NC(=O)CC(C)C` [CBK284305], the viability at 28.5 h, 10 µM came to 89.1%.

In the case of `COc1ccc(C(=O)[C@@H]2CCCN(C(=O)OC(C)(C)C)C2)cc1` [CBK284308], the viability at 28.5 h, 10 µM was determined as 98.7%. The same measure for `COc1ccc([C@H](O)[C@@H]2CCCN(C(=O)OC(C)(C)C)C2)cc1` [CBK284311]: 83.4%; for `O=c1ccc(-c2cccs2)nn1C[C@H]1CCCN1` [CBK284313]: 88.6%; for `C=CCNC(=O)[C@@H]1C=CCN1S(=O)(=O)c1ccc(Cl)cc1` [CBK284318]: 90.4%. For `C[C@@H](Cn1nnc2ccccc21)NC(=O)c1cccs1` [CBK284322], the viability at 28.5 h, 10 µM is 82.3%. As for `O=C(NC1CC1)[C@H]1C=CCN1C(=O)c1cccs1` [CBK284324], the viability at 28.5 h, 10 µM turned out to be 94.7%. The same measure for `O=C(c1ccc(F)cc1)[C@H]1CCCN(C(=O)C2CC2)C1` [CBK284326]: 90.5%; for `COc1ccc(C(=O)[C@H]2CCCN(C(=O)C3CC3)C2)cc1` [CBK284329]: 91.4%; for `O=C(c1ccc(F)cc1)[C@H]1CCCN(C(=O)c2cc[nH]n2)C1` [CBK284331]: 87.3%.

On to `CC(C)C(=O)N1CCC(n2c(=O)oc3ccc(Cl)cc32)CC1` [CBK284339], for which the viability at 28.5 h, 10 µM is 79.9%. To `O=C(C1CCCO1)N1CCCCCC1c1cc(-c2cccs2)on1` (stereo not shown) [CBK284340] belongs 97.6%; to `O=c1oc2ccc(Cl)cc2n1C1CCN(Cc2ccco2)CC1` [CBK284342], 102%. To `O=C(c1ccco1)N1CCC(n2c(=O)oc3ccc(Cl)cc32)CC1` [CBK284343] belongs 103%. The same measure for `O=C(C1CCCC1)N1CCC(n2c(=O)oc3ccc(Cl)cc32)CC1` [CBK284344]: 96.7%.

On to `O=C(c1cccs1)N1CCC(n2c(=O)oc3ccccc32)CC1` [CBK284347], for which the viability at 28.5 h, 10 µM stood at 88.2%.

On to `O=C(C1CCCCC1)N1CCC(n2c(=O)oc3ccccc32)CC1` [CBK284348], for which the viability at 28.5 h, 10 µM came to 97.2%. Regarding `O=C(C1CCCC1)N1CCC(n2c(=O)oc3ccccc32)CC1` [CBK284349], the viability at 28.5 h, 10 µM was 83.7%. To `O=C1Nc2c(cnn2-c2ccc(F)cc2)C2=NCCN12` [CBK284351] belongs 104%; to `O=C1NC2(CC3CCC2CC3C(=O)NC2CC2)Oc2ccccc21` (stereo not shown) [CBK284352], 99.6%. The same measure for `Cc1nc2n(n1)CCN(C(=O)Cc1c(C)[nH]c3ccc(F)cc13)C2` [CBK284355]: 83.1%; for `O=C(c1ccccc1F)N1CCC(O)(c2cccnc2F)CC1` [CBK284356]: 97.1%.

As for `O=C(c1cccc(F)c1)N1CCC(O)(c2cccnc2F)CC1` [CBK284357], the viability at 28.5 h, 10 µM amounted to 92.2%. As to `Cc1ccc(C(=O)N2CCC(O)(c3cccnc3F)CC2)o1` [CBK284358], the viability at 28.5 h, 10 µM was found to be 94.4%. The same measure for `O=C(c1c(F)cccc1F)N1CCC(O)(c2cccnc2F)CC1` [CBK284359]: 97.7%. To `O=C(Cc1ccccc1Cl)N1CCC(O)(c2cccnc2F)CC1` [CBK284360] belongs 101%. As to `CCS(=O)(=O)N1CC2CCCC(O)(c3ccc(F)cc3)C2C1` (stereo not shown) [CBK284363], the viability at 28.5 h, 10 µM stood at 80.5%. For the molecule `Cc1cc(-c2cc(=O)n(Cc3ccccc3F)nc2C2CC2)on1` [CBK284366], the viability at 28.5 h, 10 µM came to 87.2%. `CCC(=O)N1CCC(c2cc(C(F)(F)F)n3nc(C)cc3n2)CC1` [CBK284367]: the viability at 28.5 h, 10 µM came out at 96.9%.

For the molecule `OC1(c2cccnc2F)CCN(Cc2ccc(Cl)cc2)CC1` [CBK284368], the viability at 28.5 h, 10 µM was determined as 102%. Turning to `OC1(c2cccnc2F)CCN(Cc2ccccc2F)CC1` [CBK284372], the viability at 28.5 h, 10 µM was 91%. As to `OC1(c2cccnc2F)CCN(Cc2cccc(F)c2F)CC1` [CBK284375], the viability at 28.5 h, 10 µM was determined as 96.2%.

`Cc1ccccc1CN1CCC(O)(c2cccnc2F)CC1` [CBK284376]: the viability at 28.5 h, 10 µM came to 96%. Consider `OC1(c2ccc(F)cc2)CCCC2CN(Cc3cccnc3)CC21` (stereo not shown) [CBK284377], for which the viability at 28.5 h, 10 µM came to 86.8%. With `Cc1cc2ncc3c(n2n1)CC1CCC3N1C(=O)c1ccco1` (stereo not shown) [CBK284379], the viability at 28.5 h, 10 µM came to 78.1%. To `c1coc(-c2cc3ncc4c(n3n2)CC2CCC4N2)c1` (stereo not shown) [CBK284381] belongs 84.7%; to `C=Cn1cccc1C(=O)N1C2CCC1c1cnc3cc(C)nn3c1C2` (stereo not shown) [CBK284382], 89.2%; to `CCCC(=O)N1C2CCC1c1cnc3cc(-c4ccco4)nn3c1C2` (stereo not shown) [CBK284383], 96.6%. Take `O=C1Nc2cc(Cl)ccc2C2=NCCCN12` [CBK284385]: the viability at 28.5 h, 10 µM was determined as 81.5%.

Regarding `CCN(CC)C(=O)CN1C(=O)N2CCCN=C2c2ccc(Cl)cc21` [CBK284386], the viability at 28.5 h, 10 µM worked out at 91.7%. The same measure for `CC(C)(C)NC(=O)CN1C(=O)N2CCCN=C2c2ccc(Cl)cc21` [CBK284391]: 102%; for `CN(C)C(=O)CN1C(=O)N2CCCN=C2c2ccc(Cl)cc21` [CBK284392]: 98.2%; for `CC1CCCCN1C(=O)CN1C(=O)N2CCCN=C2c2ccccc21` (stereo not shown) [CBK284393]: 79.8%. The same measure for `CC(C)OC(=O)CN1C(=O)N2CCCN=C2c2ccccc21` [CBK284394]: 89.4%; for `O=C(CN1C(=O)N2CCCN=C2c2ccccc21)N1CCCCC1` [CBK284395]: 85.8%. The same measure for `O=C(CN1C(=O)N2CCCN=C2c2ccccc21)NC1CCCC1` [CBK284397]: 82.6%; for `CCN(CC)C(=O)CN1C(=O)N2CCCN=C2c2ccccc21` [CBK284398]: 84.4%. As to `CC(C)N(C(=O)CN1C(=O)N2CCCN=C2c2ccccc21)C(C)C` [CBK284400], the viability at 28.5 h, 10 µM is 100%. The same measure for `O=C(CN1C(=O)N2CCCN=C2c2ccccc21)NCc1ccccc1` [CBK284403]: 84.8%. The same measure for `CC(C)(C)NC(=O)CN1C(=O)N2CCCN=C2c2ccccc21` [CBK284404]: 89.7%; for `Cc1nc2c(c(=O)[nH]1)CC[C@@H]1CN(C(=O)C3CCCCC3)C[C@H]21` [CBK284407]: 102%.

As to `Cc1ccccc1-n1ncc2c1NC(=O)N1CCCN=C21` [CBK284409], the viability at 28.5 h, 10 µM stood at 78.7%.

`Cc1nc2c(c(=O)[nH]1)CC[C@@H]1CN(C(=O)Cc3ccsc3)C[C@H]21` [CBK284411]: the viability at 28.5 h, 10 µM amounted to 83.5%. To `Cc1nc2c(c(=O)[nH]1)CC[C@@H]1CN(C(=O)CCc3ccccc3)C[C@H]21` [CBK284414] belongs 95.9%; to `O=C(c1ccco1)N1C2CCC1CC(O)(c1cccnc1F)C2` (stereo not shown) [CBK284417], 98.6%. As to `O=C(c1ccccc1F)N1C2CCC1CC(O)(c1cccnc1F)C2` (stereo not shown) [CBK284420], the viability at 28.5 h, 10 µM was 98.4%.

In the case of `Cn1nccc1C(=O)C1CCN(C(=O)c2cccc(F)c2)CC1` [CBK284426], the viability at 28.5 h, 10 µM worked out at 89.2%. To `Cn1nccc1C(=O)C1CCN(C(=O)c2cc3c(s2)CCC3)CC1` [CBK284427] belongs 78.6%. The same measure for `COc1ccc2[nH]c3c(c2c1)CCN(C(C)=O)C31CCNCC1` [CBK284429]: 79.1%; for `c1cncc(C2N3CCC4(CC3)c3[nH]c5ccccc5c3CCN24)c1` (stereo not shown) [CBK284430]: 92.8%. The same measure for `Fc1ccc2[nH]c3c(c2c1)CCN1C(c2ccccn2)N2CCC31CC2` (stereo not shown) [CBK284431]: 101%; for `COc1ccc2[nH]c3c(c2c1)CCN1C(c2ccco2)N2CCC31CC2` (stereo not shown) [CBK284432]: 88%; for `O=C1NC2(CCC(=O)N(Cc3ccccc3)CC2)Nc2ccccc21` (stereo not shown) [CBK284439]: 89.8%. Consider `COC(=O)C1CC2CCC1(C)CC21NC(=O)c2ccccc2N1` (stereo not shown) [CBK284440], for which the viability at 28.5 h, 10 µM was 100%. To `CCOC(=O)C1CC2CCC1C[C@]21NC(=O)c2ccccc2N1` (stereo partly shown) [CBK284441] belongs 93.4%.
